Series [1] concerns hypomyelinated optic nerves from Shiverer mice (shi^−/−). As to the kind of experiment: Compound action potential (CAP) of dissected hypomyelinated optic nerve. The format is cell-based, mouse. As to the method:
(§1) In order to determine if the drugs could also be effective in enhancing compound action potentials (CAP), the effects of these compounds on the CAP of hypomyelinated optic nerves from Shiverer mice (shi^−/−) and control mice (shi^+/−, shi^+/+) were tested. Shiverer mice lack compact myelin in the CNS due to a null mutation of the myelin basic protein gene (MBP).
optic nerves were dissected from 12-16 week old Shiverer (shi^−/−) and control mice (shi^+/− and shi^+/+). Mice were euthanized by CO2 overdose and the optic nerves were quickly dissected between the eyeball and the optic chiasm. The nerves were incubated for 30 min at 37° C. in oxygenated (95% O2, 5% CO2) aCSF solution (126 mM NaCl, 3 mM KCl, 2 mM MgSO4, 26 mM NaHCO3, 2 mMCaCl2, 10 mM dextrose, pH 7.5) before the experiment.
compound action potentials (CAP) from hypomyelinated nerves (Shiverer mice, shi^−/−) and myelinated nerves (litermate controls, shi^+/− and shi^+/+) were recorded using suction electrodes as described by Stys et al. Briefly, the dissected optic nerve was placed inside a chamber containing oxygenated (5% CO2, 95% O2) aCSF (300 μL) between two suction electrodes (stimulus and recording electrodes) forming a tight seal on each end. Two additional electrodes were placed in the bath for reference. A supramaximal pulse (250 mV, 20 μs) was applied at the stimulating end of the nerve. The resulting CAP was amplified from the recording electrode using a high impedance low-noise amplifier (EG&G Princeton Applied Research Corporation) and filtered and sampled at 10-100 kHz. […] After each measurement the chamber was washed for 5 min (flow 1 mL/min) with oxygenated aCSF. The study was conducted at 22.2±1.3° C. to allow for slower conduction and the temperature was monitored throughout the experiment. CAP recordings were acquired with a SBC6711 board (Innovative Integration) controlled by in-house written software. Analysis of the traces was done using an in-house software. The half-maximal effective concentration (EC50) for each drug was calculated by plotting the final over initial amplitude vs. concentration and fitted to the Hill equation using Origin.
(§2) The Hill equation used to fit the data from the voltage-clamp and the optic nerve experiments was as follows: y=y0+(yf−y0)*x^n/(k^n+x^n); where n refers to the Hill coefficient (typically 1±0.1) and k refers to EC50 or IC50. y0 and yf refers to the origin and final ordinate values and were fixed at 1±0.1 or 0±0.1 depending on the experiment. EC50=10^<log EC50>; where <log EC50>=average of log EC50 values from all experiments with the same drug. 95% C.I.=[Upper Limit . . . Lower Limit]; where U.L.=10^(log EC50+s.d.) and L.L.=10^(log EC50−s.d.). The half-life (t1/2) in the stability and pharmacokinetic experiments was calculated by fitting the data to the equation Ct=C0*exp(−k*t) where C0=initial concentration, Ct=concentration at time t, and k=ln 2/t1/2. Student t-test was used to compare results and P<0.05 was considered significant.

Series [2] has as its system normally myelinated optic nerves from control mice (shi^+/−, shi^+/+). As to the kind of experiment: Compound action potential (CAP) of dissected normally myelinated optic nerve. Type of series: cell-based, mouse. Here is the method: as §1
optic nerves were dissected from 12-16 week old Shiverer (shi^−/−) and control mice (shi^+/− and shi^+/+). Mice were euthanized by CO2 overdose and the optic nerves were quickly dissected between the eyeball and the optic chiasm. […]
compound action potentials (CAP) from hypomyelinated nerves (Shiverer mice, shi^−/−) and myelinated nerves (litermate controls, shi^+/− and shi^+/+) were recorded using suction electrodes as described by Stys et al. Briefly, the dissected optic nerve was placed inside a chamber containing oxygenated (5% CO2, 95% O2) aCSF (300 μL) between two suction electrodes (stimulus and recording electrodes) forming a tight seal on each end. […] The study was conducted at 22.2±1.3° C. to allow for slower conduction and the temperature was monitored throughout the experiment. […] The half-maximal effective concentration (EC50) for each drug was calculated by plotting the final over initial amplitude vs. concentration and fitted to the Hill equation using Origin.

For series [3], the system named is C57Bl/6J mice. As to the kind of experiment: In vivo effects (tremor, seizures) after intraperitoneal injection. The arrangement: species or system mouse. To be noted: i.p.; for Effect: N = 5. Here is the method: A consequence of excessive K^+ channel blockage is the advent of seizures. 4-AP is known to cause seizures in mice at high doses.
At high doses, 4-AP causes tremors, muscle spasms and seizures.
10-week-old female C57Bl/6J mice were given an intraperitoneal injection of the drug under investigation and monitored continuously for 4 h. After 4 h no signs of drug effects could be observed. At least 72 h passed between injections to the same mice.

Series [4] in a line: Parallel Artificial Membrane Permeability Assay (PAMPA). Type of series: in vitro ADME. To be noted: porcine polar brain lipids, 0.5 mM, 16 h, n=3. Here is the method: In this experiment, the inventors included highly permeable verapamil and lowly permeable theophylline as controls.
Permeability studies were performed as previously described by Sugano, et al., 2011. A 96-well microplate (acceptor compartment) was filled with PBS containing 5% DMSO. A hydrophobic filter plate (donor compartment) was placed atop the buffer-filled plate and the filter surface was impregnated with 5 μL solution of porcine polar brain lipids (Avanti Lipids) in dodecane (1% w/v). 150 μL of the test compounds dissolved in PBS containing 5% DMSO (compound concentration 0.5 mM) was added to the donor compartment and covered. The only barrier between the two compartments was the artificial BBB membrane containing the porcine polar brain lipids. The whole system was incubated for several hours.
In general terms: In PAMPA a lipid-coated filter parts donor from acceptor wells.

Series [5] in a line: Pharmacokinetic study after single intravenous dose. Type of series: in vivo, mice (CD-1). To be noted: female, CD-1, mouse, mice, i.v. 0.75 mg/kg. Here is the method: 39 mice (CD-1, 6-weeks old, female) were used in the study. […] The drugs were dissolved in PBS and administered via tail-vein injection to achieve a dose of 0.75 mg/kg of body weight. At specific times post injection (10 min, 30 min, 1 h, 2 h, 4 h and 24 h) blood and brain samples were collected. Blood samples were transferred into tubes containing 5% EDTA, stored on ice, and centrifuged (4° C., 1000 rpm, 15 min). Plasma (upper phase) was transferred to a new tube and stored at −80° C. for further analysis. Brain tissue samples were collected after intracardial perfusion of the mouse. Brain tissue samples were stored at −80° C. for further analysis. Drug quantification in plasma: Briefly, to a 1.5 mL Eppendorf tube containing 50 μl of plasma, 200 μl of ice-cold acetonitrile containing 1,000 ng/ml Progesterone (used as internal standard) was added in order to precipitate the proteins. The sample was vortexed, mixed and centrifuged at 4000×g for 10 min at 4° C. to remove precipitates. 140 μl supernatant was collected and transferred to a 500 μl 96-well polypropylene plate and covered using silicone plate mat. 40 μl of sample was injected in into LC-MS. Using the same sample preparation procedure 11 standard solutions ranging from 50 ng/mL to 100 μg/mL were prepared, analyzed by LC-MS and used as a calibration curve to correlate peak area of the samples to concentration. Drug quantification in brain: the mouse brain was weighted and 1 mL of water per 400 mg of tissue was added. The sample was homogenized using an electric tissue homogenizer. To a 1.5 mL Eppendorf tube containing 50 μl of homogenized sample, 200 μl of ice-cold acetonitrile containing 1000 ng/ml Demeclocycline (used as internal standard) was added in order to precipitate the proteins. The sample was vortexed, mixed and centrifuged at 4000×g for 10 min at 4° C. to remove precipitates. 140 μl supernatant was collected and transferred to a 500 μl 96-well polypropylene plate and covered using silicone plate mat. 40 μl of each sample was injected into LC-MS. Using the same sample preparation procedure 11 standard solutions ranging from 50 ng/mL to 100 μg/mL were prepared, analyzed by LC-MS and used as a calibration curve to correlate peak area of the samples to concentration.
as §2

A short description of series [6]: Brain distribution of [^3H] 4-AP in LPC-injected mice by autoradiography. The format is in vivo. To be noted: [^3H] 4-AP 0.4 μCi/g i.v., 20-60 min. Here is the method:
The inventors conducted an experiment to evaluate if 4-AP selectively localizes in demyelinated (injured) areas. […] The lesions were caused by prior injection of lysophosphatidylcholine (LPC), also called lysolecithin, into their brains, which causes focal demyelination at the site of injection. Two days after LPC injection, at the peak of demyelination, the animals were injected with [^3H] […] Twenty to sixty minutes after injection of [^3H] 4-AP the mice were euthanized and their brains were dissected and frozen. The frozen brains were then cut into 20 μm sections using a cryostat and the sections mounted in slides. The slides were then exposed to radiation sensitive X-ray film at −80° C. in the dark for forty days to capture the distribution of radioactivity coming from [^3H] 4-AP throughout the brain.
After autoradiographic exposure, the slides were stained for myelin basic protein (MBP) using immunohistochemistry and imaged using fluorescent microscopy to determine the areas of demyelination.

Series [7] deals with K^+ channels. To be noted: cited from earlier work.

Like-named read-outs stand apart in the source and are kept apart here.

The values that follow come from US10442767B2 (priority 2012, dated 2019).

Turning to `Nc1ccncc1` [4-AP, 4-aminopyridine, reference compound], the EC50 in series [1] (Mus musculus, hypomyelinated Shiverer optic nerve, 22 °C, Hill fit, read-out: half-maximal effective concentration (EC50) in enhancing the CAP) was found to be 59.2 µM. In addition, the entries for the “increase in CAP amplitude” value in series [1] (hypomyelinated nerves) and in series [2] were 2-4 fold and “around 5%”, respectively. The Effect entry in series [3] (30 μmol/kg) is “Mild tremor, mouse quiet”; in series [3] (60 μmol/kg) it was “Severe tremor, mild jerks, salivation”; in series [3] (90 μmol/kg), “Severe tremors and seizures that start”. Besides, the “duration of tremors and seizures” value in series [3] (90 μmol/kg) is reported as roughly 2 h. The “start of tremors and seizures post-injection” value in series [3] (90 μmol/kg (highest dose)) is 10 min. Also, the “Pe: permeability coefficient across artificial membrane” value in series [4] came out at 2.36 ± 0.03 nm/s. In addition, the Kp in series [5] (brain and plasma, read-out: Cbrain/Cplasma (maximum in the brain over maximum in plasma)) stood at 0.1 ± 0.05. In addition, the half-life in series [5] (brain, read-out: half-life in brain (converted)) is 114 min; in series [5] (plasma, read-out: half-life in plasma (converted)) it was 19.8 min. Also, in series [6], the “brain localization by autoradiography” value is reported as “localizes to demyelinated areas but not myelinated areas”. The in vitro affinity in series [7] (in vitro) is roughly 250 µM. Also, the “concentration active in vivo” value in series [7] (in vivo) is roughly 0.5 µM.

What is called half-life is the time needed for the level to fall by half in the phase considered.
